Experimental data published in PMC9551036, “A selective and orally bioavailable VHL-recruiting PROTAC achieves SMARCA2 degradation in vivo” (Nature Communications, 2022).
Where “and” joins values, the source holds several entries; their conditions need not be identical. Equal entries are not always repeated.

Assays:
[1] = biological target: T1, SMARCA2^BD (Homo sapiens, UniProt P51531); assay: SPR binding to immobilised SMARCA2 bromodomain; conditions: benzoxazinone lead series, Fig. 1b; read-out: SMARCA2^BD SPR KD
T1 construct: P51531-2, residues 1373-1493 with additional N-terminal SM residues; GST (TEV site) (N, cleaved yes); made in house; host or cells: Escherichia coli BL21(DE3)
T1 sequence (P51531 1373-1493 isoform P51531-2): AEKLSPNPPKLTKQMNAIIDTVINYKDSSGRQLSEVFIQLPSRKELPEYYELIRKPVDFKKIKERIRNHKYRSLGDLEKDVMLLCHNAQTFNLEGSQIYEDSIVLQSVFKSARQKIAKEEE
Description: SMARCA4^BD was provided by the Structural Genomics Consortium (SGC), Toronto[32] and SMARCA2^BD and PRM1^BD5 were synthesised by GeneArt then subcloned into pDEST15 vectors (Invitrogen). The VCB complex was expressed and purified as described previously, with the modification that 0.3 mM IPTG was used for induction of expression. […] Both were stored in 20 mM 4-(2-hydroxyethyl)−1-piperazineethanesulfonic acid (HEPES), 150 mM sodium chloride and 1 mM tris(2-carboxyethyl)phosphine (TCEP) pH 7.5. SMARCA2^BD, SMARCA4^BD and PBRM1^BD5 were expressed in Escherichia coli BL21(DE3) as N-terminal GST fusion proteins with a TEV protease cleavage site. Expression and purification of these proteins has been described previously[32],[33]. Starter cultures were grown overnight at 37 °C in 10 mL of Luria-Bertani (LB) medium with ampicillin (100 μg/mL). The starter cultures were diluted (1:100) in Terrific Broth (TB) medium with ampicillin (100 μg/mL) and grown in a shaking incubator at 37 °C to an optical density (OD600) ~1 before the temperature was lowered for induction (to 23 °C for SMARCA2^BD or 18 °C for SMARCA4^BD and PRRM1^BD5). […] Cells were harvested by centrifugation and stored at −80 °C prior to purification. […] The Lysis buffers were as follows: for SMARCA2^BD: 50 mM HEPES, 500 mM sodium chloride, 5% glycerol, 5 mM dithiothreitol (DTT); for SMARCA4^BD: 25 mM HEPES, 0.3 M sodium chloride, 5% glycerol, 10 mM DTT, pH 7.5; for PBRM1^BD5: 25 mM HEPES, 300 mM sodium chloride, 5% glycerol, 10 mM DTT, pH 7.8; in each case supplemented with complete protease inhibitors (Roche). Affinity purification was performed using Glutathione Sepharose 4B (GE Healthcare) in batch mode or on-column. […] For SMARCA2^BD, prior to TEV protease cleavage the eluted GST-tagged BD was first dialysed into desalting buffer (20 mM HEPES, 250 mM sodium chloride, pH 7.0 + 0.5% glycerol). Where TEV cleavage was performed in solution, a second affinity (GST-trap) column purification step was carried out to remove the GST-tag and uncleaved GST-tagged protein. Proteins were further purified by SEC (HiLoad Superdex-75, 16/600) (GE Healthcare) and stored in Storage buffer (for SMARCA2^BD: 20 mM HEPES, 150 mM sodium chloride, pH 7.5; for SMARCA4^BD: 10 mM HEPES, 0.5 M NaCl, 5% glycerol, pH 7.5; for PBRM1^BD5: 20 mM HEPES, 300 mM NaCl, 5 mM DTT, pH 7.8). For AlphaScreen assays, eluted GST-tagged BDs were purified directly by SEC in the respective storage buffers without TEV cleavage. All chromatography purification steps were performed either at room temperature or 4 °C using an ÄKTA FPLC purification system (GE Healthcare) or a plastic Econo-Pac column (Bio-Rad).
SPR data were acquired on Biacore 8K or T200 instruments (Cytiva). Target proteins were immobilised at 25 °C on CM5 chips by amine coupling (EDC/NHS, Cytiva) in HBS-P+ running buffer (pH 7.4), containing 2 mM TCEP. […] The reference surface was subsequently deactivated using 1 M ethanolamine. […] Biotinylated VCB was prepared as previously described[27]: in brief, the complex was mixed 1:1 with EZ-Link NHS–PEG4–biotin (Thermo Scientific) and incubated at room temperature for 1 h. Unreacted NHS-biotin was removed using a PD-10 desalting column (Cytiva) into 20 mM HEPES, pH 7.5, 150 mM sodium chloride and 1 mM DTT. The reference surface was generated by deactivating the EDC/NHS-treated surface with 1 M ethanolamine. All interaction experiments were done at 6 °C in running buffer (20 mM TRIS, pH 8.3, 150 mM potassium chloride, 2 mM magnesium chloride, 2 mM TCEP, 0.005% TWEEN 20, 1% dimethyl sulfoxide). For ternary complex measurements, a sensor chip surface with VCB immobilised was used (preparation as described above). Experiments were run in dual-inject mode with 10 µM SMARCA present during the injection and dissociation phase. Sensorgrams from reference surfaces and blank injections were subtracted from the raw data prior to data analysis using Biacore Insight software.

[2] = Microsomal stability; format: in vitro ADME
Description: […] Reactions were terminated by addition of acetonitrile and precipitates separated by centrifugation. Compound concentrations in supernatants were measured by HPLC-MS/MS and clearance was calculated from compound half-lives using the well-stirred liver model.

[3] = Solubility testing; format: physicochemical
Description: Dilution into a 1:1 mixture of acetonitrile and water was used as reference. After 24 h, the incubations were filtrated, and the filtrate was analyzed by LC-UV.

CN1CCN(c2nc(=O)c3ccccc3o2)CC1 [R = H]
Kd [1]: > 25 µM

CN1CCN(c2nc(=O)c3c(Br)cccc3o2)CC1 [R = Br]
Kd [1]: 9 µM

CN1CCN(c2nc(=O)c3c(Cl)cccc3o2)CC1 [R = Cl]
Kd [1]: 25 µM

CN1CCN(c2nc(=O)c3c(F)cccc3o2)CC1 [R = F]
Kd [1]: > 25 µM

Cc1ncsc1-c1ccc([C@@H](COCCN2CCC(c3ccc4c(c3)n(C3CCCC3)c3nc(=O)c5c(Br)cccc5n43)CC2)NC(=O)[C@@H]2C[C@@H](O)CN2C(=O)[C@@H](NC(=O)C2(F)CC2)C(C)(C)C)cc1 [compound 24]
Mic. Stab. Human ([2]; human liver microsomes): 59 ± 0.4 % QH
Mic. Stab. Human QH ([2]; human liver microsomes): 59.130% and 58.510%
Mic. Stab. Mouse ([2]; mouse liver microsomes): 40 ± 2 % QH
Mic. Stab. Mouse QH ([2]; mouse liver microsomes): 38.210% and 41.130%
Mic. Stab. Rat ([2]; rat liver microsomes): 31 % QH
Mic. Stab. Rat QH ([2]; rat liver microsomes): < 23.080% and 30.780%
Solubility pH 4.5 ([3]; pH 4.5): <1.000 <1.000 ug/mL
Solubility pH 6.8 ([3]; pH 6.8): <1.000 <1.000 ug/mL

CN1CCN(c2nc(=O)c3c(I)cccc3o2)CC1 [R = I]
Kd [1]: 18 µM
